Assay results from BindingDB's records for PubMed 9454810 (Sanofi Recherche, 1998).

How the values were obtained:
[1] = target: Gamma-aminobutyric acid receptor subunit alpha-1 (Homo sapiens, UniProt P14867)
[2] = target: Potassium voltage-gated channel subfamily A member 1 (Homo sapiens, UniProt Q09470)
[3] = target: Muscarinic acetylcholine receptor M2 (Homo sapiens, UniProt P08172)
[4] = target: Endothelin receptor type B (Homo sapiens, UniProt P24530)
Galanin peptides = Galanin peptides (Homo sapiens, UniProt P22466)
[5] = target: Protein kinase C alpha type (Homo sapiens, UniProt P17252)
[6] = target: AP-4 complex subunit sigma-1 (Homo sapiens, UniProt Q9Y587)
[7] = target: Neuropeptide Y receptor type 2 (Homo sapiens, UniProt P49146)
[8] = target: Beta-2 adrenergic receptor (Homo sapiens, UniProt P07550)
[9] = target: Pro-thyrotropin-releasing hormone (Homo sapiens, UniProt P20396)
[10] = target: Alpha-1A adrenergic receptor (Homo sapiens, UniProt P35348)
[11] = target: 5-hydroxytryptamine receptor 3A (Homo sapiens, UniProt P46098)
Substance-K receptor = Substance-K receptor (Homo sapiens, UniProt P21452)
[12] = target: Muscarinic acetylcholine receptor M1 (Homo sapiens, UniProt P11229)
B2 bradykinin receptor = B2 bradykinin receptor (Homo sapiens, UniProt P30411)
VIP peptides = VIP peptides (Homo sapiens, UniProt P01282)
Histamine H3 receptor = Histamine H3 receptor (Homo sapiens, UniProt Q9Y5N1)
Thromboxane A2 receptor = Thromboxane A2 receptor (Homo sapiens, UniProt P21731)
[13] = target: Voltage-dependent N-type calcium channel subunit alpha-1B (Homo sapiens, UniProt Q00975)
[14] = target: 5-hydroxytryptamine receptor 1B (Homo sapiens, UniProt P28222)
[15] = target: Calcium-activated potassium channel subunit beta-1 (Homo sapiens, UniProt Q16558)
Adenosine receptor A1 = Adenosine receptor A1 (Homo sapiens, UniProt P30542)
[16] = target: Type-1 angiotensin II receptor (Homo sapiens, UniProt P30556)
[17] = target: Neuronal acetylcholine receptor subunit alpha-3 (Homo sapiens, UniProt P32297)
P2Y purinoceptor 1 = P2Y purinoceptor 1 (Homo sapiens, UniProt P47900)
[18] = target: Muscarinic acetylcholine receptor M4 (Homo sapiens, UniProt P08173)
[19] = target: 5-hydroxytryptamine receptor 2C (Homo sapiens, UniProt P28335)
Histamine H1 receptor = Histamine H1 receptor (Homo sapiens, UniProt P35367)
[20] = target: Gastrin/cholecystokinin type B receptor (Homo sapiens, UniProt P32239)
[21] = target: Leukotriene B4 receptor 2 (Homo sapiens, UniProt Q9NPC1)
Neurotensin/neuromedin N = Neurotensin/neuromedin N (Human, UniProt P30990)
Substance-P receptor = Substance-P receptor (Homo sapiens, UniProt P25103)
P2X purinoceptor 1 = P2X purinoceptor 1 (Homo sapiens, UniProt P51575)
[22] = target: 5-hydroxytryptamine receptor 1D (Homo sapiens, UniProt P28221)
Vasopressin V2 receptor = Vasopressin V2 receptor (Homo sapiens, UniProt P30518)
Histamine H2 receptor = Histamine H2 receptor (Homo sapiens, UniProt P25021)
D(1A) dopamine receptor = D(1A) dopamine receptor (Homo sapiens, UniProt P21728)
Vasopressin V1b receptor = Vasopressin V1b receptor (Homo sapiens, UniProt P47901)
[23] = target: Peripheral-type benzodiazepine receptor-associated protein 1 (Homo sapiens, UniProt O95153)
Adenosine receptor A2a = Adenosine receptor A2a (Homo sapiens, UniProt P29274)

Measured: Ki

Muscarinic acetylcholine receptor M1, sequence (P11229 whole entry): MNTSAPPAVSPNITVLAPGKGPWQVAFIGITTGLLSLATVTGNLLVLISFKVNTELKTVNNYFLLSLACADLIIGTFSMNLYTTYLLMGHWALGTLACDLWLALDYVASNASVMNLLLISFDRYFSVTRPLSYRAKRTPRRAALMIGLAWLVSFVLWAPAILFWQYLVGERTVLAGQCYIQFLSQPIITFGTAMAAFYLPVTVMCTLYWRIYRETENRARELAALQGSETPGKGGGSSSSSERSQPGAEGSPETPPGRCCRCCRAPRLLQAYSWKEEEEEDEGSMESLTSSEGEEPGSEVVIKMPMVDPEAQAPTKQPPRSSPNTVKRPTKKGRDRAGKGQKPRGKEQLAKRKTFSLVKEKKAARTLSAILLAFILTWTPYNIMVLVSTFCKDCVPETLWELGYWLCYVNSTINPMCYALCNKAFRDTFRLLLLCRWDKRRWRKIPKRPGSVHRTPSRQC
Neuronal acetylcholine receptor subunit alpha-3, sequence (P32297 whole entry): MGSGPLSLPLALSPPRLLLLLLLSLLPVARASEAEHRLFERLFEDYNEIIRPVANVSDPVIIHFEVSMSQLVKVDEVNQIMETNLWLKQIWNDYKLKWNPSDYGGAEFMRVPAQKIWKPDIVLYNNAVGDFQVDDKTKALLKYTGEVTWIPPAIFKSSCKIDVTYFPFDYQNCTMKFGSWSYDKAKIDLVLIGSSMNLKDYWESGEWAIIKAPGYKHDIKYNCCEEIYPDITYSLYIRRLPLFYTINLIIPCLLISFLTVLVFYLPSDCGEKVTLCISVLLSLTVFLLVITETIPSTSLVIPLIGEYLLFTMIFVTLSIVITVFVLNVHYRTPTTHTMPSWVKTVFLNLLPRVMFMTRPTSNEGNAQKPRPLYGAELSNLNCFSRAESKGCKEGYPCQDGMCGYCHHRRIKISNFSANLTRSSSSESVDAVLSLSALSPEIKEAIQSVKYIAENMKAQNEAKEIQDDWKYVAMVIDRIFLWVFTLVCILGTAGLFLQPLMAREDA
Galanin peptides, sequence (P22466 33-62 limits assumed): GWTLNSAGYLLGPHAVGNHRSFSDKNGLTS
Substance-K receptor, sequence (P21452 whole entry): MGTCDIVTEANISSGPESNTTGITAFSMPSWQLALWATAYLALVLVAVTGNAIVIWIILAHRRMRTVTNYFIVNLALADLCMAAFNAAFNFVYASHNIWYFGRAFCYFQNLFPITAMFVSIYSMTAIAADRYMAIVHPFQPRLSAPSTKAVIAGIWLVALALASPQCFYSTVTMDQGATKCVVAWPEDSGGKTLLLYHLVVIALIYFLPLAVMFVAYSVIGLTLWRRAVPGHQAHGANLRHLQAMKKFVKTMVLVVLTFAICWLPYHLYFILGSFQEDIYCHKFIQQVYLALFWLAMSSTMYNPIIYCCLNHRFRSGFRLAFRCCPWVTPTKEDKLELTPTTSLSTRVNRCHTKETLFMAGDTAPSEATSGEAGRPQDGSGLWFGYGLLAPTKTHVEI
Beta-2 adrenergic receptor, sequence (P07550 whole entry): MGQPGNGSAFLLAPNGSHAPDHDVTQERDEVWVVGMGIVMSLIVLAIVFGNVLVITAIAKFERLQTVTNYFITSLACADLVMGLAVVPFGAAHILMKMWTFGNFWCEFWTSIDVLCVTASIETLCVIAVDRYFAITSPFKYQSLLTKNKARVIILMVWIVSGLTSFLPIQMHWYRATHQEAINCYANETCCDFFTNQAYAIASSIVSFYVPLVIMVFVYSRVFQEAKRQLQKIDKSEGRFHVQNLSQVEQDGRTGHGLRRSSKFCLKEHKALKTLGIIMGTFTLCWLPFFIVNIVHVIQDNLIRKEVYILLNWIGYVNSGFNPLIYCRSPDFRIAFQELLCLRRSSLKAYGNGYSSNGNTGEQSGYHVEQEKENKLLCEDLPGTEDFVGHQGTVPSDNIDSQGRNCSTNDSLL
Gamma-aminobutyric acid receptor subunit alpha-1, sequence (P14867 whole entry): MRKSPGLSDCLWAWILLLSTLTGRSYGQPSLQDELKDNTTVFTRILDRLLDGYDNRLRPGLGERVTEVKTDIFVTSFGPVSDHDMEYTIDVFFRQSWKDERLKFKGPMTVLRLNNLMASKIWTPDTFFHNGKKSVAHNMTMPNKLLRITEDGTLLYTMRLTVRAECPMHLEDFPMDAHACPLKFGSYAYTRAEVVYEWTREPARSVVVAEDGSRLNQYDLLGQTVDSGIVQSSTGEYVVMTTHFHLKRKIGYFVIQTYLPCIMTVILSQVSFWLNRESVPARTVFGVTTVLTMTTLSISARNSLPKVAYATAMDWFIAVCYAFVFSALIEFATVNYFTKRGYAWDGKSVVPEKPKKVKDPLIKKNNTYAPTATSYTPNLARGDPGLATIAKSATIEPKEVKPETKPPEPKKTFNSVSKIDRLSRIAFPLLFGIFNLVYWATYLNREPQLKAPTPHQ
Neuropeptide Y receptor type 2, sequence (P49146 whole entry): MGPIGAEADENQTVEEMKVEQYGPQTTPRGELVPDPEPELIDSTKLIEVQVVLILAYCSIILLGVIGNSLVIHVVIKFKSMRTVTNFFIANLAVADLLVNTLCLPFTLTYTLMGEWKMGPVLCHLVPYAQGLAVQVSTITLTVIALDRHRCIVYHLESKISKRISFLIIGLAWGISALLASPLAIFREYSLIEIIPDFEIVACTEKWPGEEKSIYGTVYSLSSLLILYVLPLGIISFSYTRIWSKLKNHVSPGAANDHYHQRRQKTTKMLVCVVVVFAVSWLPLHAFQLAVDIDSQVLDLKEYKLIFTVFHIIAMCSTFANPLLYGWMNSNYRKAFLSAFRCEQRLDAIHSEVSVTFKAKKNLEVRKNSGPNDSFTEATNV
Voltage-dependent N-type calcium channel subunit alpha-1B, sequence (Q00975 whole entry): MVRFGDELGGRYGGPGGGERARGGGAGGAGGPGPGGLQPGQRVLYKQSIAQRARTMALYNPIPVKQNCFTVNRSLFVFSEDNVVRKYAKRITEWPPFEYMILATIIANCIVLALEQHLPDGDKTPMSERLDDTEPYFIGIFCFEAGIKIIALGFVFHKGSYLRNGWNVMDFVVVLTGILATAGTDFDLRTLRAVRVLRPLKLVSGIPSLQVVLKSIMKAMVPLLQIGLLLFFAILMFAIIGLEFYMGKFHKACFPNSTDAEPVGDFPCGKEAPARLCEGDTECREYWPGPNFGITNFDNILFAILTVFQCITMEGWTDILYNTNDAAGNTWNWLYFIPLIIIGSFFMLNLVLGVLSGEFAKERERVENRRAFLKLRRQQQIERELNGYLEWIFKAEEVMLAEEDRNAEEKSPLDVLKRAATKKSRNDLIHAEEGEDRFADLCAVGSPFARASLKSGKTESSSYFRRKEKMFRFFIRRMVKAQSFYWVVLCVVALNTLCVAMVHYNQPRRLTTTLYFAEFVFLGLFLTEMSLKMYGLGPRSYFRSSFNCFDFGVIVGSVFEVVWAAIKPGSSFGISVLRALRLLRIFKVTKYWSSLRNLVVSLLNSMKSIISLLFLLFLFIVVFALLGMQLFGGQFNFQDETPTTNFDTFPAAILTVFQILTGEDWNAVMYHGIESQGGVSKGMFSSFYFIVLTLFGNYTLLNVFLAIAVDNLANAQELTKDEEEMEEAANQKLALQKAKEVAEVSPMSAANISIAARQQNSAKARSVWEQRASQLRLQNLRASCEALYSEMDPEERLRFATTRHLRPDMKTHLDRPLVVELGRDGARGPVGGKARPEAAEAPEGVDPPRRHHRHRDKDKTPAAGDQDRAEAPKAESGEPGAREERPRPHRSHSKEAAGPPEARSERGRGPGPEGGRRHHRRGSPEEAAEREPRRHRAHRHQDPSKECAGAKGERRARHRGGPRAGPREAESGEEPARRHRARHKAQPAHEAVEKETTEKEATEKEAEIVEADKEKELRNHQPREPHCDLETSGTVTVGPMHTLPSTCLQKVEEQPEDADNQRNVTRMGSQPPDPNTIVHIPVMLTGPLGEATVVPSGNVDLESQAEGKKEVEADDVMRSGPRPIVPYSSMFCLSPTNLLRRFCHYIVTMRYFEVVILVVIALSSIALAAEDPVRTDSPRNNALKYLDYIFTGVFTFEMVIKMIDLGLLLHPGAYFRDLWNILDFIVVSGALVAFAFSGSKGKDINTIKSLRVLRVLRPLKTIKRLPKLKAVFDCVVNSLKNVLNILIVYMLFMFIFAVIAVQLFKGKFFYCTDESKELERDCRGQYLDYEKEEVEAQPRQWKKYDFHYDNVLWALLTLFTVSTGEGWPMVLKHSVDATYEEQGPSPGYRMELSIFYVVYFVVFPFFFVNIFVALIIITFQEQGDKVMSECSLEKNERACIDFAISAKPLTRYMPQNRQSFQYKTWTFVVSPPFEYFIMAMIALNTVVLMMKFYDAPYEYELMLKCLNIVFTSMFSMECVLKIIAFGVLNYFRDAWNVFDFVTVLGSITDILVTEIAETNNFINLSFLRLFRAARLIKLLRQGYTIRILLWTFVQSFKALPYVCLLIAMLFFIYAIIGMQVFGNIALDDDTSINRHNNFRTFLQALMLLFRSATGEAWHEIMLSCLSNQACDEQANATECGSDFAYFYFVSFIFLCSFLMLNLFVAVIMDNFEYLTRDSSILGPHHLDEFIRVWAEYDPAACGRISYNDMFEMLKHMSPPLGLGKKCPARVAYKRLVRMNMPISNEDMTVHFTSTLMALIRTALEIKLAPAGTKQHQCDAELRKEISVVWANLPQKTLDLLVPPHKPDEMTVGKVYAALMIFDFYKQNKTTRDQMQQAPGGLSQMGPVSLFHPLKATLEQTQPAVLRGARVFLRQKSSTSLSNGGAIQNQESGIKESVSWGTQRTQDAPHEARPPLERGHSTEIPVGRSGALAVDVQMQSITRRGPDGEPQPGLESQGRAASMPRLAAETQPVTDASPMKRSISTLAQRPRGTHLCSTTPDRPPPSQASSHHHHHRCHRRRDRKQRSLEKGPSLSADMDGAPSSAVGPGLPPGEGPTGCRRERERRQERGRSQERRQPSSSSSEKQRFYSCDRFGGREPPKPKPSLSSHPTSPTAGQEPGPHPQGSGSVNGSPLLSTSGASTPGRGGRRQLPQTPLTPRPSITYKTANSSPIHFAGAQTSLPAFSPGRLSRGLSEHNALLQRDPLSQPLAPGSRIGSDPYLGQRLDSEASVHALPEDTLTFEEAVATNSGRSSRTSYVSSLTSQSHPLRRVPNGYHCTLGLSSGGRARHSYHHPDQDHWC
VIP peptides, sequence (P01282 125-152 limits assumed): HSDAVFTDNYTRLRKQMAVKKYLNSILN

Cc1ccc(Cn2nc(C(=O)NC3C(C)(C)C4CC[C@@]3(C)C4)cc2-c2ccc(Cl)c(C)c2)cc1 (stereo not given in full) [N-(1,3,3-trimethylbicyclo(2.2.1)heptan-2-yl)-5-(4-chloro-3-methylphenyl)-1-(4-methylbenzyl)pyrazole-3-carboxamide]
> 10 µM: all assays above
